Common to all, as to type: biochemical
One experiment concerns the target T1, TEC (Homo sapiens, UniProt P42680).
T1 sequence (P42680 1-631): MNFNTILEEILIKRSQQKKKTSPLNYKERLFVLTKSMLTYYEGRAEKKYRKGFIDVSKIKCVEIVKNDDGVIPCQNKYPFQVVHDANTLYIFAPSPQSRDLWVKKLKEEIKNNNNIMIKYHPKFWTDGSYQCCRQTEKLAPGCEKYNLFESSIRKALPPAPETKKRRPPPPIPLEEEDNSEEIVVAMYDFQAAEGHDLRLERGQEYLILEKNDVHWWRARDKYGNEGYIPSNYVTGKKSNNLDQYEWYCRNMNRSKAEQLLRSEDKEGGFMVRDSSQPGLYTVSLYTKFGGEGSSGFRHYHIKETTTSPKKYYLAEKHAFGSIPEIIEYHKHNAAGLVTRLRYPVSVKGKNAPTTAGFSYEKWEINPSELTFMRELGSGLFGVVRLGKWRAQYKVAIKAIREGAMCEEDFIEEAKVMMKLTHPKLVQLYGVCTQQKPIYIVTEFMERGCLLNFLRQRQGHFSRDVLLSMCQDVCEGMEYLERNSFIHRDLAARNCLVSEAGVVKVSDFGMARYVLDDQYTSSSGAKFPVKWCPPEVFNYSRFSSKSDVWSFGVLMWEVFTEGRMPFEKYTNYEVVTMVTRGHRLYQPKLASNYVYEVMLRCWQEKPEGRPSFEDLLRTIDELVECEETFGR
Kind of experiment: Inhibition of a panel of kinases, in vitro HotSpot kinase assay: TEC. The following applies: E compounds, Table 17. As to the method:
(§1) The degree of inhibition of a panel of kinases is determined using the in vitro HotSpot kinase assay (purified enzymes, ^33P-ATP, an appropriate substrate and 1 μM ATP).

Another experiment concerns the target T2, BTK-WT (Homo sapiens, UniProt Q06187).
T2 construct: purified from insect cells as a full-length construct containing an N-terminal 6X-His tag; His6 (N); made in house; host or cells: insect cells (baculovirus Sf21 in Method B)
Kind of experiment: Btk in vitro inhibitory activity (one of Method A TR-FRET, Method B electrophoretic mobility shift, Method C radiometric filter binding). The conditions noted are these: E compounds, Table 17; read-out: IC50 BTK-WT. A general note: A gel shift assay detects complexes by their altered migration in electrophoresis.

The target in another experiment is T3, ITK (Homo sapiens, UniProt Q08881).
T3 sequence (Q08881 1-620): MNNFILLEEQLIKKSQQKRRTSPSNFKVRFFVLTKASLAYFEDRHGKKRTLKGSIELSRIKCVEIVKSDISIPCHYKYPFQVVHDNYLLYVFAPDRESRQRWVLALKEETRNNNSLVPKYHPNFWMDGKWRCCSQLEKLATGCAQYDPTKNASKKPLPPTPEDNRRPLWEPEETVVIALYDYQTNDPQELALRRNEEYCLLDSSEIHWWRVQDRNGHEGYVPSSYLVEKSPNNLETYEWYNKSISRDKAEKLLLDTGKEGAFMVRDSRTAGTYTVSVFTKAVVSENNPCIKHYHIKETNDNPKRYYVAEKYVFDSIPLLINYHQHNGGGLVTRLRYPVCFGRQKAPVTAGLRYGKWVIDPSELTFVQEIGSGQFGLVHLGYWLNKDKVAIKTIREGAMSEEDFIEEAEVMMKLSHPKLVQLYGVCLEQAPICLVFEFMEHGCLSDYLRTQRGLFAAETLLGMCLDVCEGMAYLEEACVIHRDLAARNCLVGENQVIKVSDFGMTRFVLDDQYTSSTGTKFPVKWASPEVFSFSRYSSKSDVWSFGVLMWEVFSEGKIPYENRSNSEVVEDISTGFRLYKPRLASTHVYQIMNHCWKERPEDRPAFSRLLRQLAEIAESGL
Kind of experiment: Inhibition of a panel of kinases, in vitro HotSpot kinase assay: ITK. The conditions noted are these: E compounds, Table 17. Here is the method: as §1

T2 sequence (Q06187 whole entry): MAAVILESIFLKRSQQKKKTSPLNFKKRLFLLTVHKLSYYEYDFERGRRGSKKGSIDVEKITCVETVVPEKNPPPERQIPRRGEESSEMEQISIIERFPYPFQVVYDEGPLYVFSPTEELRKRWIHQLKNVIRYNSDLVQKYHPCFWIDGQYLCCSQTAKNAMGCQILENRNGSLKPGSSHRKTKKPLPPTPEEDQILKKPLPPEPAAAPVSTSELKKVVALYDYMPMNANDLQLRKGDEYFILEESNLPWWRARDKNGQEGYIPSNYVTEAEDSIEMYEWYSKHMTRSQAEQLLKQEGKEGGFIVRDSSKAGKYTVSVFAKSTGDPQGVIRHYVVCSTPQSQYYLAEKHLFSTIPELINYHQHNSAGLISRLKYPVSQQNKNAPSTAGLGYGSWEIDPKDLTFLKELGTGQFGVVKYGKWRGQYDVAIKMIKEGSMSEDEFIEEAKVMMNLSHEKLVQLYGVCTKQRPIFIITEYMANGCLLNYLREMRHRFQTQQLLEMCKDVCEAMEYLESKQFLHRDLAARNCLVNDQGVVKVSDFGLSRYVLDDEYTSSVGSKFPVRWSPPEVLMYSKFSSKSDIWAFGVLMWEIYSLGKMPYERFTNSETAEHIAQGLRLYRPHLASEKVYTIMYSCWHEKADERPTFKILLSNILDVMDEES

As usually defined, the IC50 is the point on the concentration scale where inhibition reaches its midpoint. As for `C=CC(=O)NC[C@@H]1CCCN1c1nnc(C(N)=O)c(Nc2ccc(C(C)C)cc2)n1` [Example E-91, (S)-3-(2-(acrylamido-methyl)pyrrolidin-1-yl)-5-(4-isopropylphenyl-amino)-1,2,4-triazine-6-carboxamide], the half-maximal inhibitory concentration (IC50) against TEC lay within 100 to 1000 nM; at BTK-WT it was 10 to 100 nM; against ITK, 1000 to 10000 nM.

As for `C=CC(=O)N1CC[C@@H](N(C)c2nnc(C(N)=O)c(Nc3ccc(C(O)(C(F)(F)F)C(F)(F)F)cc3)n2)C1` [Example E-16, (R)-3-((1-acryloylpyrrolidin-3-yl)(methyl)amino)-5-(4-(1,1,1,3,3,3-hexafluoro-2-hydroxypropan-2-yl)phenylamino)-1,2,4-triazine-6-carboxamide], the half-inhibitory concentration (IC50) against TEC, on BTK-WT and on ITK was not above 10 nM in each case.

Take `C=CC(=O)N1CCC[C@@H](Nc2nnc(C(N)=O)c(Nc3cccc(C(=O)NCc4ccccc4)c3)n2)C1` [Example E-86, (R)-3-(1-acryloylpiperidin-3-ylamino)-5-(3-(benzyl-carbamoyl)phenyl-amino)-1,2,4-triazine-6-carboxamide]: the IC50 against TEC is not above 10 nM; at BTK-WT, not above 10 nM; at ITK it was 10 to 100 nM.

For the compound `C=CC(=O)N1CCC[C@@H](Nc2nnc(C(N)=O)c(Nc3ccc(C(C)(C)C#N)cc3)n2)C1` [Example E-49, (R)-3-(1-acryloylpiperidin-3-ylamino)-5-(4-(2-cyanopropan-2-yl)phenylamino)-1,2,4-triazine-6-carboxamide], the IC50 on TEC, on BTK-WT and at ITK was not above 10 nM throughout.

Regarding `C=CC(=O)N1CCC[C@@H](Nc2nnc(C(N)=O)c(Nc3ccc(C)cc3)n2)C1` [Example E-43, (R)-3-(1-acryloylpiperidin-3-ylamino)-5-(p-tolylamino)-1,2,4-triazine-6-carboxamide], the values for the IC50 on TEC, at BTK-WT and on ITK were not above 10 nM, not above 10 nM and 10 to 100 nM, respectively.

Take `C=CC(=O)N1CCC[C@@H](Nc2nnc(C(N)=O)c(Nc3cccc(C(=O)OCC)c3)n2)C1` [Example E-81, (R)-ethyl 3-(3-(1-acryloylpiperidin-3-ylamino)-6-carbamoyl-1,2,4-triazin-5-ylamino)benzoate]: the 50% inhibitory concentration (IC50) against TEC was not above 10 nM; at BTK-WT, not above 10 nM; against ITK it was 100 to 1000 nM.

Take `C=CC(=O)N1CCC[C@@H](Nc2nnc(C(N)=O)c(Nc3cccc(C(=O)NC)c3)n2)C1` [Example E-82, (R)-3-(1-acryloylpiperidin-3-ylamino)-5-(3-(methylcarbamoyl)phenylamino)-1,2,4-triazine-6-carboxamide]: the IC50 against TEC is not above 10 nM; on BTK-WT, not above 10 nM; on ITK, 10 to 100 nM.

On to `C=CC(=O)N1CCC[C@@H](Nc2nnc(C(N)=O)c(Nc3ccc(C(C)C)c(C)c3)n2)C1` [Example E-42, (R)-3-(1-acryloylpiperidin-3-ylamino)-5-(4-isopropyl-3-methylphenylamino)-1,2,4-triazine-6-carboxamide], for which the values for the IC50 against TEC, on BTK-WT and at ITK were not above 10 nM, not above 10 nM and 10 to 100 nM, respectively.

Turning to `C=CC(=O)N1CCC[C@@H](Nc2nnc(C(N)=O)c(Nc3cncc(F)c3)n2)C1` [Example E-53, (R)-3-(1-acryloylpiperidin-3-ylamino)-5-(5-fluoropyridin-3-ylamino)-1,2,4-triazine-6-carboxamide], the half-maximal inhibitory concentration (IC50) against TEC is not above 10 nM; on BTK-WT it was not above 10 nM; against ITK, 100 to 1000 nM.

With `C=CC(=O)N1CCC[C@@H](Nc2nnc(C(N)=O)c(Nc3cccc(C(=O)N4CCOCC4)c3)n2)C1` [Example E-85, (R)-3-(1-acryloylpiperidin-3-ylamino)-5-(3-(morpholine-4-carbonyl)phenylamino)-1,2,4-triazine-6-carboxamide], the values for the half-inhibitory concentration (IC50) on TEC, on BTK-WT and against ITK were not above 10 nM, not above 10 nM and 10 to 100 nM, respectively.

As to `C=CC(=O)N1CCC[C@@H](Nc2nnc(C(N)=O)c(Nc3cccc(C(=O)NC4CC4)c3)n2)C1` [Example E-84, (R)-3-(1-acryloylpiperidin-3-ylamino)-5-(3-(cyclopropyl-carbamoyl)phenyl-amino)-1,2,4-triazine-6-carboxamide], the IC50 on TEC was not above 10 nM; at BTK-WT it was not above 10 nM; at ITK, 10 to 100 nM.

Consider `C=CC(=O)N1CC[C@@H](N(C)c2cnc(C(N)=O)c(Nc3ccc(C(O)(C(F)(F)F)C(F)(F)F)cc3)n2)C1` [Example E-120, (R)-5-((1-acryloylpyrrolidin-3-yl)(methyl)amino)-3-(4-(1,1,1,3,3,3-hexafluoro-2-hydroxypropan-2-yl)phenylamino)pyrazine-2-carboxamide], for which the IC50 against TEC, on BTK-WT and against ITK was not above 10 nM each time.

For the compound `C=CC(=O)N1CCC[C@@H](Nc2nnc(C(N)=O)c(Nc3ccc(S(F)(F)(F)(F)F)cc3)n2)C1` [Example E-78, (R)-3-(1-acryloylpiperidin-3-ylamino)-5-(4-(penta-fluorothio)phenyl-amino)-1,2,4-triazine-6-carboxamide], the half-inhibitory concentration (IC50) at TEC is not above 10 nM; on BTK-WT it was not above 10 nM; at ITK, 10 to 100 nM.

As to `C=CC(=O)N1CCC[C@@H](Nc2nnc(C(N)=O)c(Nc3ccc(C4CCN(C5CCCC5)CC4)cc3)n2)C1` [Example E-48, (R)-3-(1-acryloylpiperidin-3-ylamino)-5-(4-(1-cyclopentylpiperidin-4-yl)phenylamino)-1,2,4-triazine-6-carboxamide], the IC50 against TEC, on BTK-WT and on ITK was not above 10 nM throughout.

In the case of `C=CC(=O)N1CCC[C@@H](Nc2nnc(C(N)=O)c(Nc3cccc(-c4ncco4)c3)n2)C1` [Example E-65, (R)-3-(1-acryloylpiperidin-3-ylamino)-5-(3-(oxazol-2-yl)phenylamino)-1,2,4-triazine-6-carboxamide], the results for the 50% inhibitory concentration (IC50) at TEC, on BTK-WT and at ITK were not above 10 nM, not above 10 nM and 10 to 100 nM, respectively.

On to `C=CC(=O)N1CCC[C@@H](Nc2nnc(C(N)=O)c(Nc3ccc4c(cnn4CC)c3)n2)C1` [Example E-66, (R)-3-(1-acryloylpiperidin-3-ylamino)-5-(1-ethyl-1H-indazol-5-ylamino)-1,2,4-triazine-6-carboxamide], for which the IC50 at TEC, at BTK-WT and on ITK was not above 10 nM in each case.

Take `C=CC(=O)N1CCC[C@@H](Nc2nnc(C(N)=O)c(Nc3cc(F)cc(Cl)c3)n2)C1` [Example E-76, (R)-3-(1-acryloylpiperidin-3-ylamino)-5-(3-chloro-5-fluorophenylamino)-1,2,4-triazine-6-carboxamide]: the figures for the concentration for half-maximal inhibition (IC50) on TEC, at BTK-WT and against ITK were not above 10 nM, not above 10 nM and 10 to 100 nM, respectively.

`C=CC(=O)NC[C@@H]1CCCCN1c1nnc(C(N)=O)c(Nc2ccc(C(C)C)cc2)n1` [Example E-89, (S)-3-(2-(acrylamido-methyl)piperidin-1-yl)-5-(4-isopropyl-phenylamino)-1,2,4-triazine-6-carboxamide]: the IC50 against TEC fell in the range of 100 to 1000 nM; on BTK-WT it was 100 to 1000 nM; against ITK, 1000 to 10000 nM.

Take `C=CC(=O)N1CCC[C@@H](Nc2nnc(C(N)=O)c(Nc3ccc(I)cc3)n2)C1` [Example E-50, (R)-3-(1-acryloylpiperidin-3-ylamino)-5-(4-iodophenylamino)-1,2,4-triazine-6-carboxamide]: the half-inhibitory concentration (IC50) against TEC was not above 10 nM; at BTK-WT, not above 10 nM; against ITK it was 10 to 100 nM.

For the compound `C=CC(=O)N1CCC[C@@H](Nc2nnc(C(N)=O)c(Nc3cccc(Cl)c3)n2)C1` [Example E-75, (R)-3-(1-acryloylpiperidin-3-ylamino)-5-(3-chlorophenylamino)-1,2,4-triazine-6-carboxamide], the IC50 against TEC is not above 10 nM; at BTK-WT, not above 10 nM; at ITK it was 10 to 100 nM.

For the origin of these results see US20210070748A1, “INHIBITORS OF BRUTONS TYROSINE KINASE” (Pharmacyclics LLC, priority 2015, published 2021).
